Data from the supplement of paper PMC11451515.

Test system: NOMO1
Assay: cell viability relative to DMSO control; higher = less cytotoxic
Conditions: 48 h
In short: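 Viability is expressed as a percentage of DMSO wells within each plate, and cell-free wells serve as background. Seeding densities in the 1536-well plates (5 μl) were 500 cells/well for NOMO1 or SEM leukemia cells and 1000 cells/well for P12-Ichikawa. Each line was adapted for at least four passages in each medium. Library compounds in DMSO were pin-dosed at 47 μM to 0.79 nM (11 points, threefold), and CellTiter-Glo One luminescence was read after 48 h at 37°C.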

[1] = HPLM + 10% dialyzed FBS, 0.000781 µM
[2] = HPLM + 10% dialyzed FBS, 0.00234 µM
[3] = HPLM + 10% dialyzed FBS, 0.00702 µM
[4] = HPLM + 10% dialyzed FBS, 0.0211 µM
[5] = HPLM + 10% dialyzed FBS, 0.0632 µM
[6] = HPLM + 10% dialyzed FBS, 0.19 µM
[7] = HPLM + 10% dialyzed FBS, 0.569 µM
[8] = HPLM + 10% dialyzed FBS, 1.71 µM
[9] = HPLM + 10% dialyzed FBS, 5.12 µM
[10] = HPLM + 10% dialyzed FBS, 15.4 µM
[11] = HPLM + 10% dialyzed FBS, 46.1 µM
[12] = RPMI 5 mM glucose + 10% FBS, 0.000781 µM
[13] = RPMI 5 mM glucose + 10% FBS, 0.00234 µM
[14] = RPMI 5 mM glucose + 10% FBS, 0.00702 µM
[15] = RPMI 5 mM glucose + 10% FBS, 0.0211 µM
[16] = RPMI 5 mM glucose + 10% FBS, 0.0632 µM
[17] = RPMI 5 mM glucose + 10% FBS, 0.19 µM
[18] = RPMI 5 mM glucose + 10% FBS, 0.569 µM
[19] = RPMI 5 mM glucose + 10% FBS, 1.71 µM
[20] = RPMI 5 mM glucose + 10% FBS, 5.12 µM
[21] = RPMI 5 mM glucose + 10% FBS, 15.4 µM
[22] = RPMI 5 mM glucose + 10% FBS, 46.1 µM
[23] = RPMI 5 mM glucose + 10% dialyzed FBS, 0.000781 µM
[24] = RPMI 5 mM glucose + 10% dialyzed FBS, 0.00234 µM
[25] = RPMI 5 mM glucose + 10% dialyzed FBS, 0.00702 µM
[26] = RPMI 5 mM glucose + 10% dialyzed FBS, 0.0211 µM
[27] = RPMI 5 mM glucose + 10% dialyzed FBS, 0.0632 µM
[28] = RPMI 5 mM glucose + 10% dialyzed FBS, 0.19 µM
[29] = RPMI 5 mM glucose + 10% dialyzed FBS, 0.569 µM
[30] = RPMI 5 mM glucose + 10% dialyzed FBS, 1.71 µM
[31] = RPMI 5 mM glucose + 10% dialyzed FBS, 5.12 µM
[32] = RPMI 5 mM glucose + 10% dialyzed FBS, 15.4 µM
[33] = RPMI 5 mM glucose + 10% dialyzed FBS, 46.1 µM

Cc1nn(Cc2ccccc2Cl)c(C)c1CN(C)CC(O)COc1ccc(Cl)cc1 (stereo unspecified)
cell viability [1]: 106% | cell viability [2]: 101% | cell viability [3]: 98% | cell viability [4]: 97.7% | cell viability [5]: 99.7% | cell viability [6]: 103% | cell viability [7]: 108% | cell viability [8]: 106% | cell viability [9]: 85.8% | cell viability [10]: 83.1% | cell viability [11]: 22.5% | cell viability [12]: 100% | cell viability [13]: 92.9% | cell viability [14]: 89.1% | cell viability [15]: 90.4% | cell viability [16]: 90.5% | cell viability [17]: 94.1% | cell viability [18]: 99.5% | cell viability [19]: 93.7% | cell viability [20]: 90.8% | cell viability [21]: 85.6% | cell viability [22]: 34.5% | cell viability [23]: 94.7% | cell viability [24]: 101% | cell viability [25]: 110% | cell viability [26]: 101% | cell viability [27]: 106% | cell viability [28]: 99.4% | cell viability [29]: 100% | cell viability [30]: 94.4% | cell viability [31]: 83.9% | cell viability [32]: 75.3% | cell viability [33]: 27.2%

C[C@]12CC[C@@H]3c4ccc(O)cc4CC[C@H]3[C@@H]1[C@@H](O)[C@@H](O)[C@@H]2O
cell viability [1]: 117% | cell viability [2]: 121% | cell viability [3]: 124% | cell viability [4]: 123% | cell viability [5]: 121% | cell viability [6]: 127% | cell viability [7]: 116% | cell viability [8]: 128% | cell viability [9]: 103% | cell viability [10]: 110% | cell viability [11]: 102% | cell viability [23]: 106% | cell viability [24]: 138% | cell viability [25]: 118% | cell viability [26]: 142% | cell viability [27]: 140% | cell viability [28]: 141% | cell viability [29]: 131% | cell viability [30]: 134% | cell viability [31]: 150% | cell viability [32]: 128% | cell viability [33]: 130%

FC1=CC=C(C=C1)N2/C=C\C=C(C(=O)NC3=CC=C(OC4=C5C=C[NH]C5=NC=C4)C(=C3)F)/C2=O
cell viability [1]: 97% | cell viability [2]: 117% | cell viability [3]: 106% | cell viability [4]: 108% | cell viability [5]: 104% | cell viability [6]: 144% | cell viability [7]: 114% | cell viability [8]: 124% | cell viability [9]: 119% | cell viability [10]: 122% | cell viability [11]: 112% | cell viability [12]: 104% | cell viability [13]: 111% | cell viability [14]: 109% | cell viability [15]: 110% | cell viability [16]: 112% | cell viability [17]: 125% | cell viability [18]: 116% | cell viability [19]: 138% | cell viability [20]: 115% | cell viability [21]: 101% | cell viability [22]: 120% | cell viability [23]: 96.1% | cell viability [24]: 92.7% | cell viability [25]: 94.5% | cell viability [26]: 107% | cell viability [27]: 108% | cell viability [28]: 108% | cell viability [29]: 102% | cell viability [30]: 124% | cell viability [31]: 106% | cell viability [32]: 115% | cell viability [33]: 108%

C[S+](=O)([O-])Nc1ccc([N+](=O)[O-])cc1Oc1ccccc1
cell viability [1]: 121% | cell viability [2]: 127% | cell viability [3]: 118% | cell viability [4]: 96.4% | cell viability [5]: 121% | cell viability [6]: 116% | cell viability [7]: 122% | cell viability [8]: 107% | cell viability [9]: 103% | cell viability [10]: 101% | cell viability [11]: 70.8% | cell viability [12]: 109% | cell viability [13]: 98.4% | cell viability [14]: 104% | cell viability [15]: 110% | cell viability [16]: 108% | cell viability [17]: 93.5% | cell viability [18]: 104% | cell viability [19]: 96.7% | cell viability [20]: 101% | cell viability [21]: 98.1% | cell viability [22]: 60.6% | cell viability [23]: 103% | cell viability [24]: 116% | cell viability [25]: 96% | cell viability [26]: 112% | cell viability [27]: 101% | cell viability [28]: 112% | cell viability [29]: 98.2% | cell viability [30]: 106% | cell viability [31]: 110% | cell viability [32]: 112% | cell viability [33]: 47.1%

CC(C)c1nc(CN(C)C(=O)N[C@H](C(=O)N[C@@H](Cc2ccccc2)C[C@H](O)[C@H](Cc2ccccc2)NC(=O)OCc2cncs2)C(C)C)cs1
cell viability [1]: 92.4% | cell viability [2]: 107% | cell viability [3]: 100% | cell viability [4]: 95.3% | cell viability [5]: 89.9% | cell viability [6]: 88.9% | cell viability [7]: 98.5% | cell viability [8]: 70.5% | cell viability [9]: 94.4% | cell viability [10]: 80.7% | cell viability [11]: 74.3% | cell viability [12]: 75.3% | cell viability [13]: 75.3% | cell viability [14]: 78.5% | cell viability [15]: 81.2% | cell viability [16]: 77.4% | cell viability [17]: 80.2% | cell viability [18]: 77.6% | cell viability [19]: 79.3% | cell viability [20]: 79.9% | cell viability [21]: 75.7% | cell viability [22]: 79% | cell viability [23]: 86.5% | cell viability [24]: 80.7% | cell viability [25]: 93% | cell viability [26]: 90.6% | cell viability [27]: 92.8% | cell viability [28]: 83.2% | cell viability [29]: 81.7% | cell viability [30]: 77.1% | cell viability [31]: 84.9% | cell viability [32]: 79.2% | cell viability [33]: 77.1%

Nc1ncnc2c1ncn2[C@@H]1O[C@@H](CO)[C@H](O)[C@@H]1O
cell viability [1]: 94.2% | cell viability [2]: 125% | cell viability [3]: 117% | cell viability [4]: 140% | cell viability [5]: 142% | cell viability [6]: 134% | cell viability [7]: 144% | cell viability [8]: 156% | cell viability [9]: 139% | cell viability [10]: 140% | cell viability [11]: 136% | cell viability [23]: 122% | cell viability [24]: 121% | cell viability [25]: 122% | cell viability [26]: 127% | cell viability [27]: 135% | cell viability [28]: 136% | cell viability [29]: 133% | cell viability [30]: 135% | cell viability [31]: 127% | cell viability [32]: 155% | cell viability [33]: 137%

COC(=O)Nc1cc(Nc2cc(NC3CC3)c3ncc(C#N)n3n2)c(Cl)c(N2CCN(C)CC2)c1
cell viability [1]: 117% | cell viability [2]: 114% | cell viability [3]: 104% | cell viability [4]: 107% | cell viability [5]: 108% | cell viability [6]: 112% | cell viability [7]: 93.7% | cell viability [8]: 86.7% | cell viability [9]: 64.5% | cell viability [10]: 45.6% | cell viability [11]: 4.67% | cell viability [12]: 88.7% | cell viability [13]: 112% | cell viability [14]: 108% | cell viability [15]: 110% | cell viability [16]: 93.3% | cell viability [17]: 110% | cell viability [18]: 84.5% | cell viability [19]: 89.7% | cell viability [20]: 57.6% | cell viability [21]: 30.1% | cell viability [22]: 4.34% | cell viability [23]: 104% | cell viability [24]: 98.2% | cell viability [25]: 99.4% | cell viability [26]: 94.3% | cell viability [27]: 93% | cell viability [28]: 106% | cell viability [29]: 85.3% | cell viability [30]: 66.9% | cell viability [31]: 45.1% | cell viability [32]: 34.5% | cell viability [33]: 3.22%

N[S+]([O-])(=O)C1=CC=C(NC/2=C/C(=O)C3=CC=CC=C3C2=O)C=C1
cell viability [1]: 100% | cell viability [2]: 126% | cell viability [3]: 111% | cell viability [4]: 132% | cell viability [5]: 119% | cell viability [6]: 121% | cell viability [7]: 134% | cell viability [8]: 111% | cell viability [9]: 93.2% | cell viability [10]: 100% | cell viability [11]: 85.4% | cell viability [12]: 121% | cell viability [13]: 123% | cell viability [14]: 131% | cell viability [15]: 151% | cell viability [16]: 131% | cell viability [17]: 147% | cell viability [18]: 129% | cell viability [19]: 132% | cell viability [20]: 126% | cell viability [21]: 123% | cell viability [22]: 102%
